Data reported in patent US20260207535A1, “CRIBLAGE INHIBITEURS USP8” (COMMISSARIAT A L'ENERGIE ATOMIQUE ET AUX ENERGIES …, priority 2022, published 2026).
Like-named read-outs stand apart in the source and are kept apart here.

Assays:
[1] = molecular target: T1, Full length USP8 (USP8FL) (Homo sapiens, UniProt P40818); experiment: USP8FL (full length USP8) enzymatic inhibition, Ub-Rhodamine 110 hydrolysis in L-cysteine buffer; type: biochemical; settings: USP8 FL 75 nM, Ub-Rho 0.1 μM, L-cysteine buffer
T1 construct: purchased BostonBiochem E-520
T1 sequence (P40818 1-1118): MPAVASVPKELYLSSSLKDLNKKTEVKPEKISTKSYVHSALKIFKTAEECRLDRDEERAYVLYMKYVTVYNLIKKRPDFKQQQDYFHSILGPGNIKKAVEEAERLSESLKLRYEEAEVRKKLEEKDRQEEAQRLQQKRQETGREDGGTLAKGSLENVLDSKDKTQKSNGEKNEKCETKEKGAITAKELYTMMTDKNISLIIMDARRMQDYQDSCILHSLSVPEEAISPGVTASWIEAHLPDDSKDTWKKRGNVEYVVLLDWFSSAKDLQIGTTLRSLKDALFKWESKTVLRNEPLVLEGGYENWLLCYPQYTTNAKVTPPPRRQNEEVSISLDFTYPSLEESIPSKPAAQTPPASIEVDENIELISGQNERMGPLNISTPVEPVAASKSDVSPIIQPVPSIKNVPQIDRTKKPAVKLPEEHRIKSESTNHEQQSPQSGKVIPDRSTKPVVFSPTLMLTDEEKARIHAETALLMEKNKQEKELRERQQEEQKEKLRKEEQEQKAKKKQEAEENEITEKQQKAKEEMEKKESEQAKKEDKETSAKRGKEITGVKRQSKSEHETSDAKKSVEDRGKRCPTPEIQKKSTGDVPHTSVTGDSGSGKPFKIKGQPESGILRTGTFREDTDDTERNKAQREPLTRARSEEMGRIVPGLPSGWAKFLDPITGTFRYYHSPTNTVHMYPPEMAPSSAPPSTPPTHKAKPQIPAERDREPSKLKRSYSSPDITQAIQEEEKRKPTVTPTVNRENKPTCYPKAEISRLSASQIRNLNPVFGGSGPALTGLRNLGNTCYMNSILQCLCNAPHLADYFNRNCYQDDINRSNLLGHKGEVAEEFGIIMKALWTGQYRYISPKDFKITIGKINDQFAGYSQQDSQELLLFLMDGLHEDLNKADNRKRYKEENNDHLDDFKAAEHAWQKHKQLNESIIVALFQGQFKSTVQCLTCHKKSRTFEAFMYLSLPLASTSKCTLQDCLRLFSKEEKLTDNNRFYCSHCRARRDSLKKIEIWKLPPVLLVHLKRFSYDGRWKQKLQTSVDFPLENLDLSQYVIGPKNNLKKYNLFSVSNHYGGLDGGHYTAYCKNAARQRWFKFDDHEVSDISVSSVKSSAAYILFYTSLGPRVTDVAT
Experimental: USP8 FL (USP8 Full Length) was incubated at a concentration of 75 nM in the presence of Ub-Rho (UBIQUIGENT ref. 60-0117-050) at a final concentration of 0.1 μM, in conditions ensuring linearity of enzyme activity throughout the assay in a specific buffer. Compounds were added to the reaction mix at different doses just before the substrate. The enzymatic reaction kinetics were monitored by measuring fluorescence elicited by the hydrolysis of Ub-Rho over 30 min.
In this setup, an in-house purified catalytic domain of USP8 (USP8CD) was used at a concentration of 80 nM in the presence of the artificial substrate Ubiquitin-Rhodamine 110 (Ub-Rho) (ref: 60-0117-050 Ubiquigent) at a final concentration of 0.1 μM, in conditions ensuring linearity of enzyme activity throughout the assay incubation time. Enzymatic assay was performed in a Tris HCl buffer (40 mM Tris HCl pH 7.4, Ovalbumine 0.5 mg/ml, Cysteine HCl 5.5 mM). Compounds to be tested were added to the reaction mix and incubated with enzyme for 20 min, before the substrate. The enzymatic reaction kinetics were monitored by measuring fluorescence elicited by the hydrolysis of the peptidyl Ub-Rho over 30 minutes. The negative control was the solvent DMSO at 1%.
Full length USP8 (USPBFL) (BostonBiochem ref. E-520) were used at a concentration of 75 nM in the presence of a ubiquitin substrate, i.e., the Ub-Rhodamine 110 (Ub-Rho) (Ubiquigent ref. 60-0117-050) at a final concentration of 0.1 μM. Enzymatic assays were performed as described for USP8-CD except that USP-FL was used at a concentration of 75 nM. The compounds were used at a final concentration of 0.1, 1, 5, 10, 50 and 100 μM in DMSO 0.5%. The USP8 catalytic activity was monitored both before adding the substrate (TO) and after twenty minutes of incubation at room temperature (Final Time TF). The enzymatic reaction kinetics were monitored by measuring fluorescence elicited by the hydrolysis of the Ub-Rho bound over 30 minutes.

AtT-20 pituitary cells = experiment: Inhibition of ACTH secretion in pituitary cells (ACTH EIA on supernatant); type: cell-based, mouse
Experimental: ACTH release (percent comparison to DMSO control). Briefly, 12,500 AtT-20 cells per well were seeded in a 96-well plate. After 24 hours exposure, cells were treated with each compound at the indicated final concentration, or with DMSO alone (control condition compound solvent) or with corticotropin releasing factor (indicated CRF) at 100 nM. After a 24-hour treatment, cell supernatants were collected and stored at −80° C., prior to quantification of ACTH concentration using ACTH chemiluminescent EIA kit (Phoenix Pharmaceuticals, Inc.). Determination of ACTH concentrations was based on the best-fitting ACTH standard curve and P values were calculated using one-way ANOVA, using Prism 9 software (GraphPad Software, Inc.) ns (P=0.12). **P<0.002. ***P<0.001. All compounds were tested in technical triplicates. One representative experiment out of three is presented.
FIG. 4: illustrates a decrease of ACTH secretion by AtT-20 cells after 24-hour treatment of halogenated salicylanilides. 12,500 AtT-20 cells per well were seeded in a 96-well plate. […] After a 24-hour treatment, cell supernatants were collected and stored at −80° C., prior to quantification of ACTH concentration using ACTH chemiluminescent EIA kit (Phoenix Pharmaceuticals, Inc.). Determination of ACTH concentrations was based on the best-fitting ACTH standard curve and P values were calculated by ordinary one-way ANOVA using Prism 6 software (GraphPad Software, Inc), ns (not significant), **** P<0.0001. Compounds were tested in technical triplicates.
12,500 AtT-20 cells per well were seeded in a 96-well plate. After 24 hours, cells were treated with compounds (corresponding chemical formula are indicated in Table 1) at 25 μM final concentration, or with DMSO alone (compound solvent). After a 24-hour treatment, cell supernatants were collected and stored at −80° C., prior to quantification of ACTH concentration using ACTH chemiluminescent EIA kit (Phoenix Pharmaceuticals, Inc.). Determination of ACTH concentrations was based on the best-fitting ACTH standard curve and P values were calculated by ordinary one-way ANOVA using Prism 6 software (GraphPad Software, Inc), ns (not significant), *P<0.05, ***P<0,0001. Compounds were tested in technical triplicates.
Mouse AtT-20 pituitary cell line were used as a powerful and well-characterized model to monitor ACTH secretion using an enzyme immunoassay (EIA) kit.
Mouse AtT-20 cells were obtained from the American Type Culture Collection and maintained on DMEM containing 10% fetal bovine serum, 100 μg/mL streptomycin and 100 U/mL penicillin at 37° C. with 5% CO2 after recovery from long-term storage on liquid nitrogen-vapor phase.
The ACTH secretion levels of AtT-20 cell culture was monitored on the supernatant of AtT-20 cells treated or not by increasing doses of compounds belonging to the family of halogenated salicylanilides chemicals.
1.25×10^4 AtT20 cells were seeded on polylysine-coated 96-well culture vessels on 150 μL of complete medium. After 24 hours, cells were treated with stock compounds to a final DMSO concentration of 0.5%. After 24 hours of treatment, cell culture supernatant was collected, cleared for 10 min at 1000×g at 4° C., diluted or not in assay buffer (Phoenix Peptide ACTH EIA EK-001-21) and frozen at −80° C. for subsequent processing according to the instructions of the kit's manufacturer.

AtT-20 cells = experiment: Cytotoxicity towards AtT-20 cells (PrestoBlue viability assay); settings: for cytotoxicity on AtT-20 cells, in words (FIG. 6): 25 μM for 24 hours
Source text: The AtT-20 cells viability was monitored in the conditions used to follow ACTH secretion. The viability of treated cells was concomitantly evaluated using a Cell Viability Reagent (monitoring of the cells' reducing capacity) (PrestoBlue® assay, Molecular Probes) with the aim to determine non-toxic doses of cell treatment.
After the collection of the supernatant sample for the ACTH assay in the previous step, cells were supplemented with the PrestoBlue™ cell viability reagent (Invitrogen™ A13261) at 10% final volume, and re-incubated at 37° C. for 30 minutes. Fluorescence was then read with a FLUOstar OPTIMA microplate reader.

[2] = read-out: USP8FL inhbition IC50 [μM] (CI: Confidence Interval)
[3] = Mus musculus, AtT20, 25 μM, 24-hour treatment, AtT-20 supernatant, read-out: ACTH secretion % of control (DMSO) at 25 μM

Row | Compound | IC50 [1, 2] [µM] | inhibition of ACTH at 25 μM, in words (FIG. 4, FIG. 5) (AtT-20 pituitary cells; 25 μM, 24-hour treatment) | activity at 25 µM (AtT-20 pituitary cells; [3]) [%] | AtT-20 cell viability (PrestoBlue assay) % of control (DMSO) at 25 μM Mean (SD) (AtT-20 cells; 24-hour exposure) | also measured
1 | O=C(Nc1cc(Cl)ccc1Cl)c1cc(I)cc(I)c1O [Amb8477378] | 13 | significant inhibition | 41 | 95.72 (11.42) % | –
2 | O=C(Nc1ccc([N+](=O)[O-])cc1Cl)c1cc(Cl)ccc1O [Niclosamide, reference compound] | 61 | significant inhibition | – | – | reduction of ACTH secretion levels (AtT-20 pituitary cells; 0.5 μM): 27%; reduction of ACTH secretion levels (AtT-20 pituitary cells; 1.0 μM): 41%; activity at 27 µM (AtT-20 pituitary cells; Mus musculus, AtT20, 27 μM, 24-hour treatment, AtT-20 supernatant, read-out: ACTH secretion % of control (DMSO) (at 27 μM)): 41%; dose-dependent inhibition of ACTH (FIG. 3) (AtT-20 pituitary cells; increasing concentrations, 24-hour treatment): significant dose-dependent inhibition; toxicity in AtT-20 cells, in words (AtT-20 cells; 0.5 μM): no significant toxicity; toxicity in AtT-20 cells, in words (AtT-20 cells; 1.0 μM): no significant toxicity; AtT-20 cell viability (PrestoBlue assay) % of control (DMSO) (at 27 μM) Mean (SD) (AtT-20 cells; 27 μM, 24-hour exposure): 50% (12,40) (at 27 μM); dose-dependent viability assay, in words (FIG. 7) (AtT-20 cells; AtT-20 cells, 24-hour exposure, several doses): considerable effects on viability upon higher doses
3 | Cc1ccc(NC(=O)c2cc(Cl)ccc2O)cc1 [OSSL-122817] | – | ineffective | 118 | – | –
4 | O=C(Nc1cc(Cl)cc(Cl)c1O)c1c(O)c(Cl)cc(Cl)c1Cl [Oxyclozanide, reference compound] | 7.68 | significant inhibition | 41 | 98.08 (14.38) % | –
5 | O=C(Nc1ccc(Oc2ccc(Cl)cc2)c(Cl)c1)c1cc(I)cc(I)c1O [Rafoxanide, reference compound] | – | significant inhibition | – | – | ACTH secretion % of control (DMSO) at 25 μM (AtT-20 pituitary cells; 25 μM, 24-hour treatment, AtT-20 supernatant, listed as Rafoxanide Amb2704313, 25 µM): 33%; ACTH secretion % of control (DMSO) at 25 μM (AtT-20 pituitary cells; 25 μM, 24-hour treatment, AtT-20 supernatant, listed as Rafoxanide MCE HY-17598, 25 µM): 57%; cytotoxicity on AtT-20 cells, in words (FIG. 6) (AtT-20 cells): partially cytotoxic; AtT-20 cell viability (PrestoBlue assay) % of control (DMSO) at 25 μM Mean (SD) (AtT-20 cells; 24-hour exposure, listed as Rafoxanide Amb2704313): 39.30 (6.852) %; AtT-20 cell viability (PrestoBlue assay) % of control (DMSO) at 25 μM Mean (SD) (AtT-20 cells; 24-hour exposure, listed as Rafoxanide MCE HY-17598): 56.15 (3.536) %
6 | O=C(Nc1ccccc1)c1ccccc1O [Salicylanilide, reference compound] | – | ineffective | – | 105.4 (14.77) % | IC50 ([1]; USP8FL inhbition IC50 [μM] (CI: Confidence Interval)): > 40 µM; activity at 25 µM (AtT-20 pituitary cells; Mus musculus, AtT20, 24 h, read-out: ACTH secretion % of control (DMSO) at 25 μM, 25 μM, 24-hour treatment, AtT-20 supernatant): 99%

Second part, led by results:

Row | IC50 [1, 2] [µM] | Compound | inhibition of ACTH at 25 μM, in words (FIG. 4, FIG. 5) (AtT-20 pituitary cells; 25 μM, 24-hour treatment) | activity at 25 µM (AtT-20 pituitary cells; [3]) [%] | AtT-20 cell viability (PrestoBlue assay) % of control (DMSO) at 25 μM Mean (SD) (AtT-20 cells; 24-hour exposure) | also measured
7 | 11.9 | O=C(Nc1ccc(Cl)cc1)c1cc(I)cc(I)c1O [Amb1935028] | significant inhibition | 32 | 58.81 (34.11) % | cytotoxicity on AtT-20 cells, in words (FIG. 6) (AtT-20 cells): partially cytotoxic
8 | 3.41 | Cc1ccc(C(=O)c2cc(NC(=O)c3cc(I)cc(I)c3O)ccc2Cl)cc1 [Amb4103735] | significant inhibition | 58 | 109.4 (18.18) % | –
9 | 14.6 | Cc1ccc(NC(=O)c2cc(I)cc(I)c2O)cc1 [Amb8477380] | significant inhibition | 66 | 93.51 (11.59) % | –
10 | 8.98 | O=C(Nc1cc(Cl)cc(Cl)c1)c1cc(I)cc(I)c1O [Amb8477462] | significant inhibition | 31 | 67.96 (17.52) % | –
11 | 4.34 | O=C(Nc1ccc(Cl)cc1Cl)c1cc(I)cc(I)c1O [Amb8487151] | significant inhibition | 44 | 89.58 (10.11) % | –
12 | 33.2 | CC(=O)Oc1c(I)cc(I)cc1C(=O)Nc1ccc(Cl)cc1 [Clioxanide, reference compound] | significant inhibition | 57 | 94.21 (12.30) % | –
